Literature values as cited in patent publication US20070254015A1, “Sanitizing surfaces” (Searete LLC, a limited liability corporation of the State …, priority 2006, published 2007).
Where two headings read alike, the source gives them in different places.

Columns and labels:
[1] = test system: Human Immunodeficiency Virus (HIV-1)
[2] = test system: Hepatitis B Virus
[3] = Table I, liquid sanitizing agents
[4] = Table II, liquid sanitizing agents for gloves

Compound | Known Minimum Concentration by Volume for Immediately Sterilizing Human Immunodeficiency Virus (HIV-1) [1, 3] | Known Minimum Concentration by Volume for Immediately Sterilizing Human Immunodeficiency Virus (HIV-1) [1, 4] | Known Minimum Concentration by Volume for Immediately Sterilizing Hepatitis B Virus [2, 3] | Known Minimum Concentration by Volume for Immediately Sterilizing Hepatitis B Virus [2, 4]
OO [Hydrogen Peroxide] | 0.3% | 0.3% |  | 
ethylphenyl-polyethylene glycol [NP-40] | 1% | 1% |  | 
CC(C)O [Isopropyl Alcohol] | 30% | 30% | 70% | 70%
CCO [Ethyl Alcohol] | 50% | 50% | 80% | 80%
